IC50 data for 41 molecules are collected here from US20240018102A1, “COMPOUNDS AND COMPOSITIONS FOR TREATING CONDITIONS ASSOCIATED WITH LPA RECEPTOR ACTIVITY” (Lhotse Bio, Inc., priority 2020, published 2024).

A value given as a limit tells only on which side of the number the result lay.

As usually defined, the IC50 is the midpoint of a concentration-inhibition curve.

The target of this assay is T1, human LPA1 (Homo sapiens, UniProt Q92633).
T1 construct: expressed in transfected cells; host or cells: CHO-K1
T1 sequence (Q92633 whole entry): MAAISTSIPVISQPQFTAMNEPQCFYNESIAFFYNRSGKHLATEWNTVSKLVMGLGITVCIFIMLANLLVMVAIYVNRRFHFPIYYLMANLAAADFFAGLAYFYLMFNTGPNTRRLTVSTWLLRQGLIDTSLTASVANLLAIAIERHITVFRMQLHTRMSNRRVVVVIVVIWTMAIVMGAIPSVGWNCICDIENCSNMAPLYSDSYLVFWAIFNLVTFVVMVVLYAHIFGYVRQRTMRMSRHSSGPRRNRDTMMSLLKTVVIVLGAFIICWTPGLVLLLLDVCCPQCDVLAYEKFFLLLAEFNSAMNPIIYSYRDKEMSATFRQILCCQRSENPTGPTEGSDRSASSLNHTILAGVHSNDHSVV
Put plainly: In vitro LPA1 calcium flux antagonist assay, Bioduro protocol. The format is cell-based. To be noted: CHO-K1 cells overexpressing human LPA1 and G15a; LPA challenge at EC80; calcium mobilization on FLIPR Tetra; read-out: IC50 (nM) in Assay B2. The protocol: In Vitro LPA1 Calcium Flux Antagonist Assay Bioduro Protocol
CHO-K1 cells overexpressing human LPA1 and G15a were seeded at a total volume of 20 uL (15000 cells/well) into Matrigel pre-coated 384-well plates (coming -3764) and incubated at 37° C. After overnight incubation, the cells were serum starved for 4 h. Assays were performed in dye loading buffer containing 1× Fluo-8 AM (AAT Bioquest, 21080) and 2.5 mM probenecid (Thermo Fisher, 36400) in HBSS/20 mM Hepes. After cell starvation, the medium was replaced with 20 uL of dye loading buffer and incubated at 37° C. for 30 min. Then 5 uL of 5× compound titrated in dye loading buffer was added to the cells and incubated for 30 min followed by LPA challenge at EC80. Calcium mobilization was measured on a FLIPR Tetra (MDS). For LPA EC80 determination, starved cells were incubated with 20 uL of dye loading buffer for 1 h, then 5 uL of 5×LPA titrated in dye loading buffer was added to the cells. Calcium signals induced by LPA was monitors on a FLIPR.
Percentage inhibition is calculated using the following formula:
% Inhibition=100%×(1−(mean RFU of test sample−mean RFU of DMSO)/(mean RFU of LPA control−mean RFU of DMSO)).
For orientation: A change in cytosolic calcium serves as a functional read-out for many receptors and channels.
As to `COc1cc([C@@H](O)[C@H](Cn2cc3ccnc(C(=O)O)c3n2)OC2CCCC2)cc(OC)c1C` [Compound 158], the IC50 came out at 55.8 nM.

For the molecule `COc1cc(C(=O)O)c2nn(C[C@H](OC3CCCC3)[C@H](O)c3cc(OC)c(C)c(OC)c3)cc2n1` [Compound 197], the 50% inhibitory concentration (IC50) worked out at 23.8 nM.

`COc1cc(C(=O)O)n2nc(C[C@H](OC3CCCC3)[C@H](O)c3cc(OC)c(C)cc3C)cc2c1` [Compound 238]: the IC50 was 53.3 nM.

Consider `Cc1ccc([C@@H](O)[C@H](Cn2cc3cccc(C(=O)O)c3n2)OC2CCCC2)cc1O` [Compound 151], for which the IC50 is at least 10000 nM.

As for `COc1cc([C@@H](O)[C@H](Cn2cc3cc(Cl)cc(C(=O)O)c3n2)OC2CCCC2)ccc1C(F)F` [Compound 173], the 50% inhibitory concentration (IC50) stood at 6.09 nM.

With `COc1c(C)ccc([C@@H](O)[C@H](Cn2cc3nccc(C(=O)O)c3n2)OC2CCCC2)c1Cl` [Compound 200], the half-inhibitory concentration (IC50) was found to be 1130 nM.

`COc1cc([C@@H](O)[C@H](Cc2cc3c(OC)ccc(C(=O)O)n3n2)OC2Cc3ccccc3C2)cc(OC)c1C` [Compound 276]: the half-inhibitory concentration (IC50) turned out to be 5 nM.

Take `Cc1ccc([C@@H](O)[C@H](Cn2cc3cccc(C(=O)O)c3n2)OC2CCCC2)cc1OC(F)(F)F` [Compound 150]: the IC50 came out at 146 nM.

Turning to `COc1cc([C@@H](O)[C@H](Cn2cc3cc(C)cc(C(=O)O)c3n2)OC2CCCC2)cc(OC)c1C` [Compound 161], the IC50 worked out at 6.28 nM.

On to `COc1cc([C@@H](O)[C@H](Cn2cc3nccc(C(=O)O)c3n2)OCCc2ccccc2)cc(OC)c1C` [Compound 184], for which the half-inhibitory concentration (IC50) came to 24 nM.

As for `COc1cc([C@@H](O)[C@H](Cn2cc3cc(F)cc(C(=O)O)c3n2)OC2CCCC2)cc(OC)c1C` [Compound 154], the IC50 is 8.64 nM.

For `COc1cc([C@@H](O)[C@H](Cc2cc3cc(C4CC4)cc(C(=O)O)n3n2)OC2CCCC2)cc(OC)c1C` [Compound 229], the IC50 was determined as 7.26 nM.

In the case of `CCc1cc(C(=O)O)c2nc(C[C@H](OCC(C)C)[C@H](O)c3cc(OC)c(C)c(OC)c3)sc2c1` [Compound 254], the half-maximal inhibitory concentration (IC50) was 8.93 nM.

Regarding `COc1cc([C@@H](O)[C@H](Cn2cc3c(C#N)ccc(C(=O)O)c3n2)OC2CCCC2)cc(OC)c1C` [Compound 182], the IC50 was determined as 79.2 nM.

On to `COc1cc([C@@H](O)[C@H](Cn2cc3cc(C(F)(F)F)cc(C(=O)O)c3n2)OC2CCCC2)cc(OC)c1C` [Compound 163], for which the half-inhibitory concentration (IC50) was 4.23 nM.

As for `CCc1cc(C(=O)O)n2nc(C[C@H](OC3CCCC3)[C@H](O)c3cc(OC)c(C)c(OC)c3)cc2c1` [Compound 251], the IC50 was 37.3 nM.

With `COc1cc([C@@H](O)[C@H](Cn2cc3nccc(C(=O)O)c3n2)OCCc2ccc(F)cc2)cc(OC)c1C` [Compound 187], the IC50 was determined as 132 nM.

Regarding `COc1cc([C@@H](O)[C@H](Cc2nc3c(C(=O)O)cccc3s2)OC2CCCC2)cc(OC)c1C` [Compound 157, 2-((2S,3R)-2-(cyclopentyloxy)-3-(3,5-dimethoxy-4-methylphenyl)-3-hydroxypropyl)benzo[d]thiazole-4-carboxylic acid], the concentration for half-maximal inhibition (IC50) amounted to 6.3 nM.

For `COc1cc([C@@H](O)[C@H](Cn2cc3nccc(C(=O)O)c3n2)OC2CCCC2)c(C)cc1C` [Compound 188], the IC50 turned out to be 447 nM.

Turning to `COc1cc([C@@H](O)[C@H](Cn2cc3cc(C#N)cc(C(=O)O)c3n2)OC2CCCC2)ccc1C(F)F` [Compound 225], the 50% inhibitory concentration (IC50) turned out to be 29.3 nM.

Regarding `COc1cc([C@@H](O)[C@H](Cc2cc3c(OC)ccc(C(=O)O)n3n2)OC2CCCC2)cc(OC)c1C` [Compound 237, 2-((2S,3R)-2-(cyclopentyloxy)-3-(3,5-dimethoxy-4-methylphenyl)-3-hydroxypropyl)-4-methoxypyrazolo[1,5-a]pyridine-7-carboxylic acid], the IC50 turned out to be 10.3 nM.

As for `COc1cc([C@@H](O)[C@H](Cc2nc([C@H](C)C(=O)O)c(C)s2)OC2CCCC2)cc(OC)c1C` (single isomer, unassigned) [Compound 239], the IC50 was determined as 37.4 nM.

As to `COc1c(C)ccc([C@@H](O)[C@H](Cn2cc3nccc(C(=O)O)c3n2)OC2CCCC2)c1F` [Compound 193], the IC50 came out at 757 nM.

`COc1cc([C@@H](O)[C@H](Cn2cc3nccc(C(=O)O)c3n2)OC2CCCC2)c(C)c(OC)c1C` [Compound 199]: the IC50 came to 667 nM.

For `COc1cc([C@@H](O)[C@H](Cn2cc3nccc(C(=O)O)c3n2)OC2Cc3ccccc3C2)cc(OC)c1C` [Compound 185], the concentration for half-maximal inhibition (IC50) came out at 15 nM.

`COc1cc(C(=O)O)n2nc(C[C@H](OC3CCCC3)[C@H](O)c3cc(OC)c(C)c(OC)c3)cc2c1` [Compound 235]: the IC50 came out at 40.8 nM.

On to `COc1cc(C(=O)O)c2nn(C[C@H](OC3CCCC3)[C@H](O)c3cc(OC)c(C)c(OC)c3)cc2c1` [Compound 164], for which the IC50 was 11.9 nM.

Turning to `COc1cc([C@@H](O)[C@H](Cn2cc3nccc(C(=O)O)c3n2)OC2CCCC2)c(Cl)cc1C` [Compound 201], the IC50 worked out at 938 nM.

Take `COc1cc([C@@H](O)[C@H](Cn2cc3c(C(F)(F)F)ccc(C(=O)O)c3n2)OC2CCCC2)cc(OC)c1C` [Compound 186]: the IC50 was 7640 nM.

On to `COc1cc([C@@H](O)[C@H](Cc2nc3c(C(=O)O)cncc3s2)OC2CCCC2)cc(OC)c1C` [Compound 176], for which the IC50 was 9.95 nM.

For `COc1cc([C@@H](O)[C@H](Cc2nc3c(C(=O)O)cc(F)cc3s2)OCC(C)C)cc(OC)c1C` [Compound 262], the half-inhibitory concentration (IC50) is 15.8 nM.

On to `CCCc1sc(C[C@H](OC2CCCC2)[C@H](O)c2cc(OC)c(C)c(OC)c2)nc1CC(=O)O` [Compound 179], for which the IC50 was 20.3 nM.

Regarding `COc1cc([C@@H](O)[C@H](Cc2nc(CC(=O)O)c(C)s2)OC2CCCC2)cc(OC)c1C` [Compound 177, 2-(2-((2S,3R)-2-(cyclopentyloxy)-3-(3,5-dimethoxy-4-methylphenyl)-3-hydroxypropyl)-5-methylthiazol-4-yl)acetic acid], the IC50 worked out at 154 nM.

Turning to `COc1cc([C@@H](O)[C@H](Cn2cc3nccc(C(=O)O)c3n2)OC2CCCC2)c(F)cc1C` [Compound 190], the half-inhibitory concentration (IC50) worked out at 1530 nM.

`COc1cc([C@@H](O)[C@H](Cn2cc3cc(CNC(C)=O)cc(C(=O)O)c3n2)OC2CCCC2)cc(OC)c1C` [Compound 220]: the IC50 was 106 nM.

Consider `COc1cc([C@@H](O)[C@H](Cn2cc3cc(C)nc(C(=O)O)c3n2)OC2CCCC2)cc(OC)c1C` [Compound 195], for which the IC50 worked out at 32.3 nM.

`COc1cc([C@@H](O)[C@H](Cn2cc3nccc(C(=O)O)c3n2)OCC(C)C)cc(OC)c1C` [Compound 211]: the concentration for half-maximal inhibition (IC50) amounted to 459 nM.

Turning to `COc1cc([C@@H](O)[C@H](Cc2nc3c(C(=O)O)cc(C(F)(F)F)cc3s2)OCC(C)C)cc(OC)c1C` [Compound 253], the IC50 came to 5.79 nM.

For the molecule `CCCCc1sc(C[C@H](OC2CCCC2)[C@H](O)c2cc(OC)c(C)c(OC)c2)nc1CC(=O)O` [Compound 259], the 50% inhibitory concentration (IC50) is 31.9 nM.

As to `COc1cc([C@@H](O)[C@H](Cn2cc3cc(C(F)F)cc(C(=O)O)c3n2)OC2CCCC2)cc(OC)c1C` [Compound 162], the IC50 was 3.93 nM.

`COc1cc([C@@H](O)[C@H](Cc2cc3cccc(C(=O)O)n3n2)OC2CCCC2)cc(OC)c1C` [Compound 169, 2-((2S,3R)-2-(cyclopentyloxy)-3-(3,5-dimethoxy-4-methylphenyl)-3-hydroxypropyl)pyrazolo[1,5-a]pyridine-7-carboxylic acid]: the IC50 was 150 nM.
